Counter-ions that a name gives are not always drawn.
Assays:
IKKε = target: T1, IKKε (Homo sapiens, UniProt Q14164); assay: IKKe Biochemical Assay; details: read-out: IKKε IC50
T1 sequence (Q14164 1-716): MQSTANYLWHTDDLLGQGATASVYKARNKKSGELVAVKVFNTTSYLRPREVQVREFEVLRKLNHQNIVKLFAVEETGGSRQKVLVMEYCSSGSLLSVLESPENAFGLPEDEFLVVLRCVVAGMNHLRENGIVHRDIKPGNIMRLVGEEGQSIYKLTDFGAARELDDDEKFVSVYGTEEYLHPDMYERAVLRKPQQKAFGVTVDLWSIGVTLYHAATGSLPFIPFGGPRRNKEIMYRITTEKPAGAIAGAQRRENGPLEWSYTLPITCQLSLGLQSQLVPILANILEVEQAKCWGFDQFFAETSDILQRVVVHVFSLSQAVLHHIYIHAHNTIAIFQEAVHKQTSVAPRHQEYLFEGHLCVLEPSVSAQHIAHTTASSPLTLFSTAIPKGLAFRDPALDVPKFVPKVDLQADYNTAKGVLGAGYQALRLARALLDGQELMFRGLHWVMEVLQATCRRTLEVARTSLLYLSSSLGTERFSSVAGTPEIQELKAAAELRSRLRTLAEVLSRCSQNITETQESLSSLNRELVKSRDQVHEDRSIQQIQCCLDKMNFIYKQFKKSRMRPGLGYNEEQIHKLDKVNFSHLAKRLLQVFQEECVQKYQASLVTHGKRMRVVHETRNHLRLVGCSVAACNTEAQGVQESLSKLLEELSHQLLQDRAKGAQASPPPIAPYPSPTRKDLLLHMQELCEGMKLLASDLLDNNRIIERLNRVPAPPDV
Procedure, shortened: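 Activity was measured as mobility-shift separation of phosphorylated from unphosphorylated substrate on a LabChip EZ Reader. Compound was titrated from 30 uM final in 10 points, 1:4 steps, with 1% DMSO, and enzyme plus substrate reacted 90 min at 25° C before stop buffer. Control wells held 10 uM staurosporine.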

TBK1 = target: T2, TBK1 (Homo sapiens, UniProt Q9UHD2); assay: TBK Biochemical Assay; details: read-out: TBK1 IC50
T2 sequence (Q9UHD2 1-729): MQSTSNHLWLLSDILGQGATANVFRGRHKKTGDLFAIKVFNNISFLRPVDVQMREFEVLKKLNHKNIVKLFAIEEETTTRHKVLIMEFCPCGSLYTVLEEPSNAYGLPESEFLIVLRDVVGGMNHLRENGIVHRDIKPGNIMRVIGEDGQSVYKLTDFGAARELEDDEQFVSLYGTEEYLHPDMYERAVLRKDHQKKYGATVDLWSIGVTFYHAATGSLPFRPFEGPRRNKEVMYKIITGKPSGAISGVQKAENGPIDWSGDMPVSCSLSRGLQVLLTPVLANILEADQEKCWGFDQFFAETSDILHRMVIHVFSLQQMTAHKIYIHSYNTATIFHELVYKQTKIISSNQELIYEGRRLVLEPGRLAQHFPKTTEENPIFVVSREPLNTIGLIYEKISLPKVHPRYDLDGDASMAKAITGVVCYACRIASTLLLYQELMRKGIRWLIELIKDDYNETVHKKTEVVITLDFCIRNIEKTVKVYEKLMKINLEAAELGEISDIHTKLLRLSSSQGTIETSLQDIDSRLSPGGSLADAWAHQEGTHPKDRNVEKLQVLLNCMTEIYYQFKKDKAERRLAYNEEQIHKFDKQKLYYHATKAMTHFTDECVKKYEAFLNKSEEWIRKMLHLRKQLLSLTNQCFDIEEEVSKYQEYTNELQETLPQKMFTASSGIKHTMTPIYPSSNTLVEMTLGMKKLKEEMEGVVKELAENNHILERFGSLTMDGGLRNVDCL
Procedure, shortened: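 Caliper LabChip mobility-shift readout of substrate and product after 90 min of TBK1 reaction at 25° C and stop-buffer addition. Compounds tested in 1:4 serial dilution over 10 points from 30 uM final at 1% DMSO; staurosporine 10 uM final defines full inhibition.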

[1] = system: phosphorylation of the IRF-3 protein in MDA-MB-468 cells; assay: pIRF3 immunocytochemistry cell based assay; details: Homo sapiens; MDA-MB-468 cells, Poly(I:C) stimulation; read-out: pIRF3 IC50
Procedure, shortened: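 After 2 h stimulation with Poly(I:C) (10 ug/ml), following 1 h compound pre-treatment (10-point, 3-fold dilution, top 10 uM), MDA-MB-468 cells were fixed and stained with anti-pIRF3 antibody. pIRF3 fluorescence was normalized to PI staining or cell count on an Acumen cytometer. IC50 curves were derived from this.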

Q: With COc1cc(C(=O)N2CC(O)C2)ccc1-c1cc2nccc(-c3ccc(OC4CCOCC4)c(C#N)c3)c2o1 [Compound 39, 5-{2-[4-(3-Hydroxy-azetidine-1-carbonyl)-2-methoxy-phenyl]-furo[3,2-b]pyridin-7-yl}-2-(tetrahydro-pyran-4-yloxy)-benzonitrile] as the molecule, how does the IC50 (IKKε) read?
A: < 100 nM

Q: What about the IC50 (TBK1) of the same molecule?
A: < 100 nM

Q: What about the IC50 [1] of the same molecule?
A: 100 to 1000 nM

Q: What does the source list for COc1cc(C(N)=O)ccc1-c1cc2nccc(-c3ccc(OC4CCOCC4)c(C#N)c3)c2o1 [Compound 40, 4-{7-[3-Cyano-4-(tetrahydro-pyran-4-yloxy)-phenyl]-furo[3,2-b]pyridin-2-yl}-3-methoxy-benzamide]?
A: IC50 (IKKε): < 100 nM; IC50 (TBK1): < 100 nM; IC50 [1]: 100 to 1000 nM

Q: Which IC50 (IKKε) does the source give for COc1cc(C(=O)N2CC[C@@H](O)C2)ccc1-c1cc2nccc(-c3ccc(OC4CCOCC4)c(C#N)c3)c2o1 [Compound 43, 5-{2-[4-((R)-3-Hydroxy-pyrrolidine-1-carbonyl)-2-methoxy-phenyl]-furo[3,2-b]pyridin-7-yl}-2-(tetrahydro-pyran-4-yloxy)-benzonitrile] here?
A: < 100 nM

Q: And the IC50 (TBK1)?
A: < 100 nM

Q: What about the IC50 [1] of the same molecule?
A: 100 to 1000 nM

Q: With COc1cc(C(=O)N2CCC(F)(F)C2)ccc1-c1cc2nccc(-c3ccc(OC4CCOCC4)c(C#N)c3)c2o1 [Compound 45, 5-{2-[4-(3,3-Difluoro-pyrrolidine-1-carbonyl)-2-methoxy-phenyl]-furo[3,2-b]pyridin-7-yl}-2-(tetrahydro-pyran-4-yloxy)-benzonitrile] as the molecule, how does the IC50 (IKKε) read?
A: < 100 nM

Q: What about the IC50 (TBK1) of the same molecule?
A: < 100 nM

Q: And the IC50 [1]?
A: 100 to 1000 nM

Q: Which results are given for COc1cc(C(=O)N2CC3CCC(C2)O3)ccc1-c1cc2nccc(-c3ccc(NC4CCOCC4)c(C#N)c3)c2o1 [Compound 46, 5-{2-[2-Methoxy-4-(8-oxa-3-aza-bicyclo[3.2.1]octane-3-carbonyl)-phenyl]-furo[3,2-b]pyridin-7-yl}-2-(tetrahydro-pyran-4-ylamino)-benzonitrile]?
A: IC50 (IKKε): < 100 nM; IC50 (TBK1): < 100 nM; IC50 [1]: 100 to 1000 nM

Q: What does the source list for COc1cc(C(=O)N2CC[C@H](N(C)C)C2)ccc1-c1cc2nccc(-c3ccc(N4CC[C@H](F)C4)c(C#N)c3)c2o1 [Compound 47, 5-{2-[4-((S)-3-Dimethylamino-pyrrolidine-1-carbonyl)-2-methoxy-phenyl]-furo[3,2-b]pyridin-7-yl}-2-((S)-3-fluoro-pyrrolidin-1-yl)-benzonitrile]?
A: IC50 (IKKε): < 100 nM; IC50 (TBK1): < 100 nM; IC50 [1]: 100 to 1000 nM

Q: Which IC50 (IKKε) does the source give for COc1cc(C(=O)NC[C@@H](O)CO)ccc1-c1cc2nccc(-c3ccc(OC4CCOCC4)c(C#N)c3)c2o1 [Compound 49, 4-{7-[3-Cyano-4-(tetrahydro-pyran-4-yloxy)-phenyl]-furo[3,2-b]pyridin-2-yl}-N—((R)-2,3-dihydroxy-propyl)-3-methoxy-benzamide] here?
A: < 100 nM

Q: And the IC50 (TBK1)?
A: < 100 nM

Q: And the IC50 [1]?
A: 100 to 1000 nM

Q: Which results are given for COc1cc(-c2n[nH]c(=O)o2)ccc1-c1cc2nccc(-c3ccc(OC4CCOCC4)c(C#N)c3)c2o1 [Compound 50, 5-{2-[2-Methoxy-4-(5-oxo-4,5-dihydro-[1,3,4]oxadiazol-2-yl)-phenyl]-furo[3,2-b]pyridin-7-yl}-2-(tetrahydro-pyran-4-yloxy)-benzonitrile]?
A: IC50 (IKKε): < 100 nM; IC50 (TBK1): < 100 nM; IC50 [1]: 100 to 1000 nM

Q: COc1cc(C(=O)NC2(CO)COC2)ccc1-c1cc2nccc(-c3ccc(OC4CCOCC4)c(C#N)c3)c2o1 [Compound 51, 4-{7-[3-Cyano-4-(tetrahydro-pyran-4-yloxy)-phenyl]-furo[3,2-b]pyridin-2-yl}-N-(3-hydroxymethyl-oxetan-3-yl)-3-methoxy-benzamide] was tested. Which IC50 (IKKε) did it give?
A: < 100 nM

Q: And the IC50 (TBK1)?
A: < 100 nM

Q: And the IC50 [1]?
A: 100 to 1000 nM

Q: What does the source list for COc1cc(C(=O)N2CCC3(CCNC3=O)CC2)ccc1-c1cc2nccc(-c3ccc(NC4CCOCC4)c(C#N)c3)c2o1 [Compound 52, 5-{2-[2-Methoxy-4-(1-oxo-2,8-diaza-spiro[4.5]decane-8-carbonyl)-phenyl]-furo[3,2-b]pyridin-7-yl}-2-(tetrahydro-pyran-4-ylamino)-benzonitrile]?
A: IC50 (IKKε): < 100 nM; IC50 (TBK1): < 100 nM; IC50 [1]: 100 to 1000 nM

Q: Which IC50 (IKKε) does the source give for COc1cc(C(=O)N(C)OC)ccc1-c1cc2nccc(-c3ccc(OC4CCOCC4)c(C#N)c3)c2o1 [Compound 53, 4-{7-[3-Cyano-4-(tetrahydro-pyran-4-yloxy)-phenyl]-furo[3,2-b]pyridin-2-yl}-3,N-dimethoxy-N-methyl-benzamide] here?
A: < 100 nM

Q: And the IC50 (TBK1)?
A: < 100 nM

Q: What about the IC50 [1] of the same molecule?
A: 100 to 1000 nM

Q: For COc1cc(C(=O)N[C@@H]2CCC[C@@H](O)[C@H]2O)ccc1-c1cc2nccc(-c3ccc(OC4CCOCC4)c(C#N)c3)c2o1 [Compound 54, 4-{7-[3-Cyano-4-(tetrahydro-pyran-4-yloxy)-phenyl]-furo[3,2-b]pyridin-2-yl}-N-((1R,2S,3R)-2,3-dihydroxy-cyclohexyl)-3-methoxy-benzamide], which IC50 (IKKε) is on record?
A: < 100 nM

Q: What about the IC50 (TBK1) of the same molecule?
A: < 100 nM

Q: What about the IC50 [1] of the same molecule?
A: 100 to 1000 nM

Q: How did the IC50 (IKKε) turn out when COc1cc(C(=O)N2CC3NCCC32)ccc1-c1cc2nccc(-c3ccc(OC4CCOCC4)c(C#N)c3)c2o1 (stereo not drawn) [Compound 55, 5-{2-[4-(2,6-Diaza-bicyclo[3.2.0]heptane-6-carbonyl)-2-methoxy-phenyl]-furo[3,2-b]pyridin-7-yl}-2-(tetrahydro-pyran-4-yloxy)-benzonitrile hydrochloride] was run?
A: < 100 nM

Q: And the IC50 (TBK1)?
A: < 100 nM

Q: What about the IC50 [1] of the same molecule?
A: < 100 nM

Q: Which results are given for COc1cc(C(=O)N(C)C)ccc1-c1cc2nccc(-c3ccc(N4CC[C@@H](F)C4)c(C#N)c3)c2o1 [Compound 57, 4-{7-[3-Cyano-4-((R)-3-fluoro-pyrrolidin-1-yl)-phenyl]-furo[3,2-b]pyridin-2-yl}-3-methoxy-N,N-dimethyl-benzamide]?
A: IC50 (IKKε): < 100 nM; IC50 (TBK1): < 100 nM; IC50 [1]: 100 to 1000 nM

Q: Which results are given for COc1cc(C(=O)N2CC3CCC(C2)O3)ccc1-c1cc2nccc(-c3ccc(OC4CCOCC4)c(C#N)c3)c2o1 [Compound 58, 5-{2-[2-Methoxy-4-(8-oxa-3-aza-bicyclo[3.2.1]octane-3-carbonyl)-phenyl]-furo[3,2-b]pyridin-7-yl}-2-(tetrahydro-pyran-4-yloxy)-benzonitrile]?
A: IC50 (IKKε): < 100 nM; IC50 (TBK1): < 100 nM; IC50 [1]: < 100 nM

Q: COc1cc(C(=O)NCC2(C)COC2)ccc1-c1cc2nccc(-c3ccc(OC4CCOCC4)c(C#N)c3)c2o1 [Compound 59, 4-{7-[3-Cyano-4-(tetrahydro-pyran-4-yloxy)-phenyl]-furo[3,2-b]pyridin-2-yl}-3-methoxy-N-(3-methyl-oxetan-3-ylmethyl)-benzamide] was tested. Which IC50 (IKKε) did it give?
A: < 100 nM

Q: And the IC50 (TBK1)?
A: < 100 nM

Q: And the IC50 [1]?
A: 100 to 1000 nM

Q: COc1cc(C(=O)NC2CCNCC2)ccc1-c1cc2nccc(-c3ccc(OC4CCOCC4)c(C#N)c3)c2o1 [Compound 62, 4-{7-[3-Cyano-4-(tetrahydro-pyran-4-yloxy)-phenyl]-furo[3,2-b]pyridin-2-yl}-3-methoxy-N-piperidin-4-yl-benzamide hydrochloride] was tested. Which IC50 (IKKε) did it give?
A: < 100 nM

Q: And the IC50 (TBK1)?
A: < 100 nM

Q: What about the IC50 [1] of the same molecule?
A: 100 to 1000 nM

Q: COc1cc(C(=O)NC(C)(C)CN(C)C)ccc1-c1cc2nccc(-c3ccc(OC4CCOCC4)c(C#N)c3)c2o1 [Compound 63, 4-{7-[3-Cyano-4-(tetrahydro-pyran-4-yloxy)-phenyl]-furo[3,2-b]pyridin-2-yl}-N-(2-dimethylamino-1,1-dimethyl-ethyl)-3-methoxy-benzamide] was tested. Which IC50 (IKKε) did it give?
A: < 100 nM

Q: And the IC50 (TBK1)?
A: < 100 nM

Q: What about the IC50 [1] of the same molecule?
A: < 100 nM

From patent US10428080B2, “TBK/IKK inhibitor compounds and uses thereof” (Merck Patent GmbH, priority 2015, dated 2019)
